In US12605451B2, “Targeted plasma protein degradation” (Novartis AG, priority 2020, dated 2026):
Like-named read-outs stand apart in the source and are kept apart here. Positions of bridges follow the written chain, without caps; N, C: chain ends. Non-standard residues stand in square brackets, D forms with d. Residues, ends and D or L forms follow the SMILES beside them. *: point of attachment. X4 = CC(=O)N[C@H]1[C@H](OCCCCC(=O)NCCCNCC(=O)CCOCC(COCCC(=O)NCCCNC(=O)CCCCO[C@@H]2O[C@H](CO)[C@H](O)[C@H](O)[C@H]2NC(C)=O)(COCCC(=O)NCCCNC(=O)CCCCO[C@@H]2O[C@H](CO)[C@H](O)[C@H](O)[C@H]2NC(C)=O)NC(=O)CCCCCCC(=O)*)O[C@H](CO)[C@H](O)[C@@H]1O; X2 = CC(=O)N[C@H]1[C@H]2OC[C@](COCCOCCOCCOCCn3cc(COCC(COCc4cn(CCOCCOCCOCCOC[C@@]56CO[C@@H](O5)[C@H](NC(C)=O)[C@@H](O)[C@H]6O)nn4)NC(=O)CCOCCOCCOCCOCCC(=O)*)nn3)(O2)[C@H](O)[C@@H]1O; Bip = N[C@@H](Cc1ccc(-c2ccccc2)cc1)C(=O)O; Levulinoyl = CC(=O)CCC(=O)*; NMeA = CN[C@@H](C)C(=O)O

What was measured:
human PCSK9 = target: T1, human PCSK9 (Homo sapiens, UniProt Q8NBP7); experiment: SPR binding to biotinylated human PCSK9 (Proteon XPR36)
T1 construct: Purified recombinant full length human PCSK9 with C-terminal biotinylated Avitag
T1 sequence (Q8NBP7 153-692): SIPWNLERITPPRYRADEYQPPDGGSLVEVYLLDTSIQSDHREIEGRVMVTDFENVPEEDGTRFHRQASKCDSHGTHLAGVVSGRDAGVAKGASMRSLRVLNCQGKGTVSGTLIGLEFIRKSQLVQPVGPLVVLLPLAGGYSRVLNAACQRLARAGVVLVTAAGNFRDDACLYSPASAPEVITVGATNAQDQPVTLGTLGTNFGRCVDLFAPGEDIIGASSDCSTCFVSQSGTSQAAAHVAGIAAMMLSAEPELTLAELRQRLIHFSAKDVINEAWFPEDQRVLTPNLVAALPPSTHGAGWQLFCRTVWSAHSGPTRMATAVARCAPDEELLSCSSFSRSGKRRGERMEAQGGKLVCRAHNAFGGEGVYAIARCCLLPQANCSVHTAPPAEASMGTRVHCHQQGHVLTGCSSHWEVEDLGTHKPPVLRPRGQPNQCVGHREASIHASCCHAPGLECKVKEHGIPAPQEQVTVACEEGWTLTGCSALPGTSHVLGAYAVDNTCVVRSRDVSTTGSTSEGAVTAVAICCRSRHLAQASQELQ
Method: SPR was used to obtain the binding data for PCSK9 receptor ligand compound (C5), either alone or as part of the bifunctional compounds (BFC1), respectively.
SPR Binding experiments were performed on a Proteon XPR36 instrument (Bio-Rad Laboratories). Purified recombinant full length human PCSK9 with C-terminal biotinylated Avitag was used for the assay. Biotinylated human PCSK9 was incubated with fivefold molar excess of bifunctional compound (BFC1) or compound (C5), and immobilized onto a Neutravidin coated sensor chip. (NLC chip, Bio-Rad Laboratories, Inc). After conditioning the chip by injecting running buffer (20 mM Tris pH7.5, 300 mM NaCl, 25 mM CaCl2, 2 mM betamercaptoethanol, 2% DMSO and 0.05% Tween-20) at a flow rate of 0.1 mL/min for 240 s, PCSK9 protein was injected at a protein concentration of 0.02 mg/ml in running buffer with fivefold molar excess of bifunctional compound and a flow rate of 0.03 mL/min followed by 4 washes with running buffer with 1 μM of bifunctional compound (0.1 mL/min for 60 seconds each).
To perform sandwich SPR binding assays, His-ASGPR1 (62-291) protein stocks were diluted with running buffer to a desired concentration. ASGPR was injected at a flow rate of 0.1 mL/min for 240 s and allowed to dissociate for 1200 s. Sensorgrams were recorded for association and dissociation phases. All sensorgrams were processed by subtracting the binding response recorded from a blank control surfaces (or interspot surfaces), followed by subtracting buffer blank injections from the reaction surface. Data were processed with the ProteOn Manager software (version 3.1.0.6, Bio-Rad, Inc.).

human ASGPR1 = target: T2, human ASGPR1 (Homo sapiens, UniProt P07306); experiment: ASGPR1 SPR direct binding (Biacore, SA chip)
T2 construct: Recombinant extracellular domain of human ASGPR1 with N-terminal biotinylated Avitag
T2 sequence (P07306 62-291 limits assumed): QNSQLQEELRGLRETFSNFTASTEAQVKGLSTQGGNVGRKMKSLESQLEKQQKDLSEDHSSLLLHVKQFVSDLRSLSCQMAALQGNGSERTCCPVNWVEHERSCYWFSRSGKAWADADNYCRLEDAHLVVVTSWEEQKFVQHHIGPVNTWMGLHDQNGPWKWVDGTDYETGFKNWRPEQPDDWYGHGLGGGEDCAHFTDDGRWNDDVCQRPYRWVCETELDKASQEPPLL
Method: SPR was used to obtain the binding data for ASGP receptor ligand compound (int-CC2), either alone or as part of the bifunctional compounds (BFC-13), (BFC-15) and (BFC16).
(§1) ASGPR1 SPR experiments were performed on either Biacore T200 or Biacore 8K. The assay was optimized for Biacore (Streptavidin) SA chip in running buffer consisting of 20 mM HEPES, 300 mM NaCl, 2 mM CaCl2, 0.01% tween-20, 2% DMSO, pH 7.4. Recombinant extracellular domain of human ASGPR1 with N-terminal biotinylated Avitag was diluted to 20 μg/mL in running buffer, and immobilized onto SA chip after it was preconditioned with at least four 60-second injections at 30 uL/min of 1 M NaCl/40 mM NaOH solution. Protein immobilization level varied from 500 RU to 3500 RU dependent on analytes' molecular weight, for targeted Rmax of 30 RUs. Direct binding of analytes to ASGPR1 was observed when a dose response titration of analytes in 2% DMSO was flown over the immobilized protein. Data analysis was done on either Biacore T200 Evaluation Software or Biacore Insight Evaluation Software.
SPR was used to obtain the binding data for ASGP receptor ligand compounds (int-CC2), either alone or as part of the bifunctional compounds (BFC1).
as §1, with “Biacore” for “Biacore (Streptavidin)”

[1] = Free Ligand, SPR, read-out: PCSK9 KD
[2] = Bifunctional Compound (PCSK9 series), Table 9, read-out: ASGPR binding KD
[3] = Bifunctional Compound, SPR, read-out: PCSK9 KD

SMILES	Kd (human ASGPR1; [2])	Kd (human PCSK9; [3])	further results
CC(=O)CCC(=O)NCCCC[C@H](NC(=O)CNC(=O)[C@@H]1CSCC(=O)N[C@@H](Cc2ccccc2)C(=O)N[C@@H](C(C)C)C(=O)N2CCC[C@H]2C(=O)N[C@@H]([C@@H](C)O)C(=O)N[C@@H]([C@@H](C)O)C(=O)N[C@@H](Cc2ccc(-c3ccccc3)cc2)C(=O)N(C)[C@@H](C)C(=O)N[C@@H](Cc2ccc(-c3ccccc3)cc2)C(=O)N(C)[C@@H](C)C(=O)N[C@@H](CCC(=O)O)C(=O)N[C@@H](C)C(=O)N2CCC[C@H]2C(=O)N1)C(N)=O [C5] ({CH2CO}-FVPTT[Bip][NMeA][Bip][NMeA]EAPCGK(Levulinoyl)-NH2; thioether N-13)	–	–	Kd (human PCSK9; [1]): 1.2 nM
COC[C@H]1NC(=O)[C@@H](CCCNC(=O)CCCCCCC(=O)NC(COCCC(=O)NCCCNC(=O)CCCCO[C@H]2O[C@@H](CO)[C@@H](O)[C@@H](O)[C@@H]2NC(C)=O)(COCCC(=O)NCCCNC(=O)CCCCO[C@H]2O[C@@H](CO)[C@@H](O)[C@@H](O)[C@@H]2NC(C)=O)COCCC(=O)NCCCNC(=O)CCCCO[C@H]2O[C@@H](CO)[C@@H](O)[C@@H](O)[C@@H]2NC(C)=O)N(Cc2ccc(Cl)cc2Oc2ccc(-c3cnc(CN(C)C)n3C)cc2)C(=O)C[C@H](Cc2ccccc2)C(=O)N(C)[C@@H]2CCCC[C@H]2NC(=O)C[C@@H](Cc2ccc(Cl)cc2)N(C)C1=O [BFC-10]	100 nM	2.3 nM	–
CC(C)[C@@H]1NC(=O)[C@H](Cc2ccccc2)NC(=O)CSC[C@@H](C(=O)NCC(=O)N[C@@H](CCCCNC(=O)OC[C@@H]2[C@@H]3CCc4c(nnn4CCCCCCO[C@H](O[C@@H](/C=N/OCC(=O)NNC(=O)CCCO[C@@H]4O[C@H](CO[C@H]5O[C@H](CO[C@H]6O[C@H](CO)[C@@H](O)[C@H](O)[C@@H]6O[C@H]6O[C@H](COP(=O)(O)O)[C@@H](O)[C@H](O)[C@@H]6O)[C@@H](O)[C@H](O)[C@@H]5O)[C@@H](O)[C@H](O[C@H]5O[C@H](CO)[C@@H](O)[C@H](O)[C@@H]5O[C@H]5O[C@H](COP(=O)(O)O)[C@@H](O)[C@H](O)[C@@H]5O)[C@@H]4O)CO)[C@H](O)/C=N\OCC(=O)NNC(=O)CCCO[C@@H]4O[C@H](CO[C@H]5O[C@H](CO[C@H]6O[C@H](CO)[C@@H](O)[C@H](O)[C@@H]6O[C@H]6O[C@H](COP(=O)(O)O)[C@@H](O)[C@H](O)[C@@H]6O)[C@@H](O)[C@H](O)[C@@H]5O)[C@@H](O)[C@H](O[C@H]5O[C@H](CO)[C@@H](O)[C@H](O)[C@@H]5O[C@H]5O[C@H](COP(=O)(O)O)[C@@H](O)[C@H](O)[C@@H]5O)[C@@H]4O)CC[C@@H]32)C(N)=O)NC(=O)[C@@H]2CCCN2C(=O)[C@H](C)NC(=O)[C@H](CCC(=O)O)NC(=O)[C@H](C)N(C)C(=O)[C@H](Cc2ccc(-c3ccccc3)cc2)NC(=O)[C@H](C)N(C)C(=O)[C@H](Cc2ccc(-c3ccccc3)cc2)NC(=O)[C@H]([C@@H](C)O)NC(=O)[C@H]([C@@H](C)O)NC(=O)[C@@H]2CCCN2C1=O [BFC-3]	–	–	Kd (human PCSK9): 7.7 nM
CC(=O)N[C@H]1[C@H]2OC[C@](COCCOCCOCCOCCn3cc(COCC(COCc4cn(CCOCCOCCOCCOC[C@@]56CO[C@@H](O5)[C@H](NC(C)=O)[C@@H](O)[C@H]6O)nn4)NC(=O)CCOCCOCCOCCOCCC(=O)NCCCC[C@H](NC(=O)CNC(=O)[C@@H]4CSCC(=O)N[C@@H](Cc5ccccc5)C(=O)N[C@@H](C(C)C)C(=O)N5CCC[C@H]5C(=O)N[C@@H]([C@@H](C)O)C(=O)N[C@@H]([C@@H](C)O)C(=O)N[C@@H](Cc5ccc(-c6ccccc6)cc5)C(=O)N(C)[C@@H](C)C(=O)N[C@@H](Cc5ccc(-c6ccccc6)cc5)C(=O)N(C)[C@@H](C)C(=O)N[C@@H](CCC(=O)O)C(=O)N[C@@H](C)C(=O)N5CCC[C@H]5C(=O)N4)C(N)=O)nn3)(O2)[C@H](O)[C@@H]1O (some centres unmarked) [BFC-7] ({CH2CO}-FVPTT[Bip][NMeA][Bip][NMeA]EAPCGK(X2)-NH2; thioether N-13)	7 nM	3.5 nM	–
CC(=O)N[C@H]1[C@H](OCCCCC(=O)NCCCNCC(=O)CCOCC(COCCC(=O)NCCCNC(=O)CCCCO[C@@H]2O[C@H](CO)[C@H](O)[C@H](O)[C@H]2NC(C)=O)(COCCC(=O)NCCCNC(=O)CCCCO[C@@H]2O[C@H](CO)[C@H](O)[C@H](O)[C@H]2NC(C)=O)NC(=O)CCCCCCC(=O)NCCCC[C@H](NC(=O)CNC(=O)[C@@H]2CSCC(=O)N[C@@H](Cc3ccccc3)C(=O)N[C@@H](C(C)C)C(=O)N3CCC[C@H]3C(=O)N[C@@H]([C@@H](C)O)C(=O)N[C@@H]([C@@H](C)O)C(=O)N[C@@H](Cc3ccc(-c4ccccc4)cc3)C(=O)N(C)[C@@H](C)C(=O)N[C@@H](Cc3ccc(-c4ccccc4)cc3)C(=O)N(C)[C@@H](C)C(=O)N[C@@H](CCC(=O)O)C(=O)N[C@@H](C)C(=O)N3CCC[C@H]3C(=O)N2)C(N)=O)O[C@H](CO)[C@H](O)[C@@H]1O [BFC-1] ({CH2CO}-FVPTT[Bip][NMeA][Bip][NMeA]EAPCGK(X4)-NH2; thioether N-13)	0.32 nM	3.9 nM	–
COC[C@@H]1NC(=O)[C@H](CCCNC(=O)CCOCCOCCOCCOCCC(=O)NCCOCc2cn(CCOCCOCCOCCOC[C@@]34CO[C@@H](O3)[C@H](NC(C)=O)[C@@H](O)[C@H]4O)nn2)N(Cc2ccc(Cl)cc2Oc2ccc(-c3cnc(CN(C)C)n3C)cc2)C(=O)C[C@@H](Cc2ccccc2)C(=O)N(C)[C@H]2CCCC[C@@H]2NC(=O)C[C@H](Cc2ccc(Cl)cc2)N(C)C1=O [BFC-12]	22 nM	–	–
COC[C@@H]1NC(=O)[C@H](CCCN)N(Cc2ccc(Cl)cc2Oc2ccc(-c3cnc(CN(C)C)n3C)cc2)C(=O)C[C@@H](Cc2ccccc2)C(=O)N(C)[C@H]2CCCC[C@@H]2NC(=O)C[C@H](Cc2ccc(Cl)cc2)N(C)C1=O [C9, (4S,7S,10S,14R,16aS,20aS)-10-(3-aminopropyl)-14-benzyl-11-(4-chloro-2-(4-(2-((dimethylamino)methyl)-1-methyl-1H-imidazol-5-yl)phenoxy)benzyl)-4-(4-chlorobenzyl)-7-(methoxymethyl)-5,16-dimethylhexadecahydrobenzo[1][1,4,7,11,14]pentaazacyclooctadecine-2,6,9,12,15 (3H)-pentaone]	–	–	Kd (human PCSK9; [1]): < 1 nM
CC(=O)N[C@H]1[C@H](OCCCCC(=O)NCCCNC(=O)CCOCC(N)(COCCC(=O)NCCCNC(=O)CCCCOC2O[C@H](CO)[C@H](O)[C@H](O)[C@H]2NC(C)=O)COCCC(=O)NCCCNC(=O)CCCCO[C@@H]2O[C@H](CO)[C@H](O)[C@H](O)[C@H]2NC(C)=O)O[C@H](CO)[C@H](O)[C@@H]1O (stereo partly drawn) [int-CC2, N,N′-(10-((3-((3-(5-(((3R,4R,5R,6R)-3-acetamido-4,5-dihydroxy-6-(hydroxymethyl)tetrahydro-2H-pyran-2-yl)oxy)pentanamido)propyl)amino)-3-oxopropoxy)methyl)-10-amino-5,15-dioxo-8,12-dioxa-4,16-diazanonadecane-1,19-diyl)bis(5-(((2R,3R,4R,5R,6R)-3-acetamido-4,5-dihydroxy-6-(hydroxymethyl)tetrahydro-2H-pyran-2-yl)oxy)pentanamide)]	–	–	Kd (human ASGPR1; Free Ligand, Table 7, read-out: ASGPR KD): 0.9 nM
